Read-outs that look alike come from different tables or passages of the source.
How the values were obtained:
Assay type in all cases: cell-based, human
[1] = test system: senescent IMR90 ER:RAS cells (4-OHT-induced); experiment: Nuclei count (Hoechst, high content imaging) senolytic assay, oncogene-induced senescence (OIS) model, senescent cells; settings: for viability at 10 µM / viability at 4.677 µM / viability at 2.188 µM / viability at 1 µM / viability at 0.4677 µM / viability at 0.2188 µM / viability at 0.1 µM / viability at 0.04677 µM / viability at 0.02188 µM / viability at 0.01 µM: Homo sapiens; for viability at 4.677 µM: log (dose) [M] -5.33, 72 h; for viability at 0.4677 µM: log (dose) [M] -6.33, 72 h; for viability at 0.1 µM: log (dose) [M] -7, 72 h
Method in brief: (§1)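 Cells seeded, left 24 h, then dosed across a 10-point […] series (10 μM down to 10 nM) with DMSO control. After 72 h, wells were fixed, permeabilised and stained with Hoechst. Nuclei were counted by high-content imaging in senescent and non-senescent IMR90 ER:RAS cultures.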

[2] = test system: non-senescent control IMR90 ER:RAS cells; experiment: Nuclei count (Hoechst, high content imaging) senolytic assay, OIS model, non-senescent control cells; settings: Homo sapiens; for viability at 1 µM: log (dose) [M] -6, 72 h; for viability at 0.2188 µM: log (dose) [M] -6.66, 72 h; for viability at 0.02188 µM: log (dose) [M] -7.66, 72 h; for viability at 0.219 µM: log (dose) [M] -6.66; for viability at 0.0219 µM: log (dose) [M] -7.66
Method in brief: as §1

[3] = test system: senescent A549 cells (etoposide-induced); experiment: Nuclei count senolytic assay, therapy-induced senescence (TIS) model, senescent cells; settings: Homo sapiens, A549, Senescent cells, mean, read-out: Mean % Cell Survival; for viability at 10 µM: log (dose) [M] -5; for viability at 4.68 µM: log (dose) [M] -5.33; for viability at 2.19 µM: log (dose) [M] -5.66; for viability at 1 µM: log (dose) [M] -6; for viability at 0.468 µM: log (dose) [M] -6.33; for viability at 0.219 µM: log (dose) [M] -6.66; for viability at 0.1 µM: log (dose) [M] -7; for viability at 0.0468 µM: log (dose) [M] -7.33; for viability at 0.0219 µM: log (dose) [M] -7.66; for viability at 0.01 µM: log (dose) [M] -8
Method in brief: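 Senescence in A549 cells is induced by 48 h of 100 μM etoposide followed by three days without drug, alongside non-senescent controls. Cells are seeded, rested 24 h, then exposed 72 h to compounds (10 nM–10 μM final, […] steps, triplicate) before nuclei are counted by imaging.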

[4] = IMR-90, 72 h, Senescent, log (dose) [M] -5, 72 h, mean n=3 (Fig 3C), read-out: Mean % Cell Survival
[5] = IMR-90, 72 h, Senescent, mean n=3 (Fig 3C), read-out: Mean % Cell Survival
[6] = IMR-90, 72 h, Senescent, log (dose) [M] -5.66, 72 h, mean n=3 (Fig 3C), read-out: Mean % Cell Survival
[7] = IMR-90, 72 h, Senescent, log (dose) [M] -6, 72 h, mean n=3 (Fig 3C), read-out: Mean % Cell Survival
[8] = IMR-90, 72 h, Senescent, log (dose) [M] -6.66, 72 h, mean n=3 (Fig 3C), read-out: Mean % Cell Survival
[9] = IMR-90, 72 h, Senescent, log (dose) [M] -7.33, 72 h, mean n=3 (Fig 3C), read-out: Mean % Cell Survival
[10] = IMR-90, 72 h, Senescent, log (dose) [M] -7.66, 72 h, mean n=3 (Fig 3C), read-out: Mean % Cell Survival
[11] = IMR-90, 72 h, Senescent, log (dose) [M] -8, 72 h, mean n=3 (Fig 3C), read-out: Mean % Cell Survival
[12] = IMR-90, Senescent cells, log (dose) [M] -7.66, individual replicates, SUP FIG 4C, read-out: % Cell Survival
[13] = IMR-90, Senescent, log (dose) [M] -7.66, read-out: % Cell Survival
[14] = IMR-90, Senescent, log (dose) [M] -8, read-out: % Cell Survival
[15] = IMR-90, 72 h, Control, log (dose) [M] -5, 72 h, mean n=3 (Fig 3C), read-out: Mean % Cell Survival
[16] = IMR-90, 72 h, Control, log (dose) [M] -5.33, 72 h, mean n=3 (Fig 3C), read-out: Mean % Cell Survival
[17] = IMR-90, 72 h, Control, log (dose) [M] -5.66, 72 h, mean n=3 (Fig 3C), read-out: Mean % Cell Survival
[18] = IMR-90, 72 h, Control, mean n=3 (Fig 3C), read-out: Mean % Cell Survival
[19] = IMR-90, 72 h, Control, log (dose) [M] -6.33, 72 h, mean n=3 (Fig 3C), read-out: Mean % Cell Survival
[20] = IMR-90, 72 h, Control, log (dose) [M] -7, 72 h, mean n=3 (Fig 3C), read-out: Mean % Cell Survival
[21] = IMR-90, 72 h, Control, log (dose) [M] -7.33, 72 h, mean n=3 (Fig 3C), read-out: Mean % Cell Survival
[22] = IMR-90, 72 h, Control, log (dose) [M] -8, 72 h, mean n=3 (Fig 3C), read-out: Mean % Cell Survival
[23] = IMR-90, Control, log (dose) [M] -5, read-out: % Cell Survival
[24] = IMR-90, Control, log (dose) [M] -5.66, read-out: % Cell Survival
[25] = IMR-90, Control, log (dose) [M] -6.33, read-out: % Cell Survival
[26] = IMR-90, Control, read-out: % Cell Survival
[27] = IMR-90, Control, log (dose) [M] -7, read-out: % Cell Survival
[28] = IMR-90, Control, log (dose) [M] -8, read-out: % Cell Survival

Compound: O=c1c(O)c(-c2ccc(O)cc2O)oc2cc(O)cc(O)c12 [Morin, morin]
- viability at 10 µM [1, 4]: 75%
- viability at 4.677 µM [1, 5]: 90.7%
- viability at 2.188 µM [1, 6]: 96.2%
- viability at 1 µM [1, 7]: 91.1%
- viability at 0.4677 µM [1, 5]: 91.7%
- viability at 0.2188 µM [1, 8]: 92.4%
- viability at 0.1 µM [1, 5]: 96.6%
- viability at 0.04677 µM [1, 9]: 95.3%
- viability at 0.02188 µM [1, 10]: 92.3%
- viability at 0.01 µM [1, 11]: 94.2%
- viability at 10 µM ([1]; IMR-90, Senescent cells, log (dose) [M] -5, individual replicates, SUP FIG 4C, read-out: % Cell Survival): 75.9%
- viability at 0.04677 µM ([1]; IMR-90, Senescent cells, log (dose) [M] -7.33, individual replicates, SUP FIG 4C, read-out: % Cell Survival): 87%
- viability at 0.02188 µM [1, 12]: 91.1%
- viability at 2.188 µM ([1]; IMR-90, Senescent, log (dose) [M] -5.66, read-out: % Cell Survival): 55.7%
- viability at 1 µM ([1]; IMR-90, Senescent, log (dose) [M] -6, read-out: % Cell Survival): 62.4%
- viability at 0.2188 µM ([1]; IMR-90, Senescent, log (dose) [M] -6.66, read-out: % Cell Survival): 63.2%
- viability at 0.02188 µM [1, 13]: 95.7%
- viability at 0.01 µM [1, 14]: 93.7%
- senolytic activity (in words) ([1]; experimental screen, OIS IMR90 ER:RAS): inactive
- viability at 10 µM [2, 15]: 95.2%
- viability at 4.677 µM [2, 16]: 93.9%
- viability at 2.188 µM [2, 17]: 96.1%
- viability at 1 µM [2, 18]: 81.3%
- viability at 0.4677 µM [2, 19]: 91.6%
- viability at 0.2188 µM [2, 18]: 86.4%
- viability at 0.1 µM [2, 20]: 91.3%
- viability at 0.04677 µM [2, 21]: 86.7%
- viability at 0.02188 µM [2, 18]: 91.5%
- viability at 0.01 µM [2, 22]: 99.5%
- viability at 10 µM ([2]; IMR-90, Control cells, log (dose) [M] -5, individual replicates, SUP FIG 4C, read-out: % Cell Survival): 88.7%
- viability at 4.677 µM ([2]; IMR-90, Control cells, log (dose) [M] -5.33, individual replicates, SUP FIG 4C, read-out: % Cell Survival): 93.4%
- viability at 2.188 µM ([2]; IMR-90, Control cells, log (dose) [M] -5.66, individual replicates, SUP FIG 4C, read-out: % Cell Survival): 102%
- viability at 0.4677 µM ([2]; IMR-90, Control cells, log (dose) [M] -6.33, individual replicates, SUP FIG 4C, read-out: % Cell Survival): 88.8%
- viability at 0.1 µM ([2]; IMR-90, Control cells, log (dose) [M] -7, individual replicates, SUP FIG 4C, read-out: % Cell Survival): 98.5%
- viability at 0.01 µM ([2]; IMR-90, Control cells, log (dose) [M] -8, individual replicates, SUP FIG 4C, read-out: % Cell Survival): 103%
- viability at 10 µM [2, 23]: 102%
- viability at 2.19 µM [2, 24]: 93.3%
- viability at 0.468 µM [2, 25]: 110%
- viability at 0.219 µM [2, 26]: 106%
- viability at 0.1 µM [2, 27]: 91.9%
- viability at 0.0219 µM [2, 26]: 98.9%
- viability at 0.01 µM [2, 28]: 97.2%
- viability at 10 µM [3]: 87.9%
- viability at 4.68 µM [3]: 93.5%
- viability at 2.19 µM [3]: 59.5%
- viability at 1 µM [3]: 67.1%
- viability at 0.468 µM [3]: 88.2%
- viability at 0.219 µM [3]: 69.3%
- viability at 0.1 µM [3]: 84.2%
- viability at 0.0468 µM [3]: 54.5%
- viability at 0.0219 µM [3]: 87.7%
- viability at 0.01 µM [3]: 95.1%

Compound: CO[C@H]1C[C@@H]2CC[C@@H](C)[C@@](O)(O2)C(=O)C(=O)N2CCCC[C@H]2C(=O)O[C@H]([C@H](C)C[C@@H]2CC[C@@H](OP(C)(C)=O)[C@H](OC)C2)CC(=O)[C@H](C)/C=C(\C)[C@@H](O)[C@@H](OC)C(=O)[C@H](C)C[C@H](C)/C=C/C=C/C=C/1C [Ridaforolimus, ridaforolimus, reference compound]
- viability at 10 µM [1, 4]: 122%
- viability at 4.677 µM [1, 5]: 144%
- viability at 2.188 µM [1, 6]: 164%
- viability at 1 µM [1, 7]: 156%
- viability at 0.4677 µM [1, 5]: 160%
- viability at 0.2188 µM [1, 8]: 156%
- viability at 0.1 µM [1, 5]: 126%
- viability at 0.04677 µM [1, 9]: 128%
- viability at 0.02188 µM [1, 10]: 131%
- viability at 0.01 µM [1, 11]: 105%
- viability at 2.188 µM ([1]; IMR-90, Senescent cells, log (dose) [M] -5.66, individual replicates, SUP FIG 4C, read-out: % Cell Survival): 166%
- viability at 0.02188 µM [1, 12]: 129%
- viability at 0.02188 µM [1, 13]: 81.7%
- viability at 0.01 µM [1, 14]: 78.7%
- viability at 10 µM [2, 15]: 75.2%
- viability at 4.677 µM [2, 16]: 82.6%
- viability at 2.188 µM [2, 17]: 82.3%
- viability at 1 µM [2, 18]: 77.9%
- viability at 0.4677 µM [2, 19]: 87.6%
- viability at 0.2188 µM [2, 18]: 91.5%
- viability at 0.1 µM [2, 20]: 77.4%
- viability at 0.04677 µM [2, 21]: 106%
- viability at 0.02188 µM [2, 18]: 88.9%
- viability at 0.01 µM [2, 22]: 92.5%
- viability at 10 µM [2, 23]: 119%
- viability at 2.19 µM [2, 24]: 107%
- viability at 0.468 µM [2, 25]: 105%
- viability at 0.219 µM [2, 26]: 109%
- viability at 0.1 µM [2, 27]: 97%
- viability at 0.04677 µM ([2]; IMR-90, Control, log (dose) [M] -7.33, read-out: % Cell Survival): 115%
- viability at 0.0219 µM [2, 26]: 113%
- viability at 0.01 µM [2, 28]: 113%
- viability at 10 µM [3]: 162%
- viability at 4.68 µM [3]: 174%
- viability at 2.19 µM [3]: 157%
- viability at 1 µM [3]: 66.9%
- viability at 0.468 µM [3]: 113%
- viability at 0.219 µM [3]: 102%
- viability at 0.1 µM [3]: 60.6%
- viability at 0.0468 µM [3]: 60.9%
- viability at 0.0219 µM [3]: 84.7%
- viability at 0.01 µM [3]: 87.1%

Reference: paper PMC10257182, “Discovery of senolytics using machine learning” (Nature Communications, 2023)
